Assay results published in patent US12121540B2, “CBL inhibitors and compositions for use in adoptive cell therapy” (Nurix Therapeutics, Inc., priority 2019, dated 2024).

What was measured:
[1] = system: human tumor-infiltrating lymphocytes (TIL); assay: Ex vivo expansion of TIL from human tumor fragments (pre-REP); assay type: cell-based; conditions: for Expansion of TIL, total cell number relative to IL-2 alone: day 17
Procedure: Samples of human ovarian and colon tumors were obtained from the Cooperative Human Tissue Network (CHTN, c/o Vanderbilt University Medical Center, Nashville, TN). Solid tumor specimens were carefully dissected free of surrounding fatty and necrotic areas. The tumors were sliced into 8 mm^3 (2×2×2 mm^3) fragments under sterile conditions using a scalpel and a scalpel holder.
The plates were placed in a humidified 37° C. incubator with 5% CO2. Half of the medium was replaced every two days after culture initiation. […] Subsequently, half the media was replaced thrice weekly, cultures were split to maintain a cell density of 1×10^6 cells/mL. […] Mitochondrial markers including, Mitotracker, Mitoprobe, and 2-NBDG may also be used to assess differentiation and/or activation of cells.

CD4/8+ T cells = assay: Intracellular IFN-γ after PMA/ionomycin stimulation of expanded T cells; assay type: cell-based, human; conditions: IL-2 and Cbl inhibitor expanded T cells; PMA/ionomycin 6 h
Procedure: T cell activity was determined by analysis of cytokine secretion. To investigate whether these expanded T cells are capable of responding to extracellular stimulation, T cells were stimulated with 25 ng/mL phorbol myristate acetate (PMA) and 0.5 μM ionomycin. After 90 min of stimulation, monensin, 1:50, (GolgiStop, BD Biosciences) was added. After 6 h, cells were stained for surface expression of CD4+, CD8+, CD45RA+, CD95+, CCR7+, CD62L+, and subsequently, fixed, permeabilized and stained for intracellular cytokine, IFN-γ.

E.G7-OVA tumors = assay: Adoptive transfer of ex vivo expanded OT-1 cells into E.G7-OVA tumor-bearing mice: antitumor response; assay type: in vivo, mouse
Source text: Antigen specific T cells from transgenic mice can be leveraged as a model for CAR T or TIL expansion ex vivo with a Cbl inhibitor. The OT-1 transgenic animals, that are commercially available, have CD8 T cells that recognize OVA peptide aa 257-264 when presented by the MHC I molecule. CD8+ T cells from OT-1 mice were isolated from a single cell suspension of splenocytes by negative selection (StemCell Technologies cat #19853 EasySep™ Mouse CD8+ T Cell Isolation Kit). Cell were then resuspended in complete media (RPMI1640, 10% heat inactivated FBS, 1× Penicillin/Streptomycin, 1× Glutamine and […]-mercaptoethanol) at concentration of 0.5×10^6 per mL. Six well tissue culture plates (Falcon) were coated with 2 ug/mL of anti-mouse CD3 (Bio Xcell Cat #BE0001-1-R100 mg InVivoMAb anti-mouse CD3ε Clone: 145-2C11) for >3 hrs at 37° C. and washed with PBS (MediaTech) prior to cell addition. […] Following three days of OT-1 T cell activation and expansion the cells were collected, counted and immunophenotyped by flow cytometry by measuring expression of differentiation and additional T cell makers including: CD3, CD4, CD8, CD45, CD25, Granzyme B, CD107a, CD127, PD-1, TIM3, LAG3, KLRG-1, ICOS, TCF1, Ki67, T-bet and FOXP3.
Dead cells were removed (Miltenyi Biotec Cat #130-090-101) prior to transfer in vivo to monitor their trafficking and function in an EG.7 lymphoma model, which expresses the OVA antigen. Approximately five million cells per mouse were transferred to mice having an average tumor burden of about 70 mm^3. Following in vivo transfer of the OT-1 cells, antitumor response was monitored over time and the quality and quantity of immune response were assessed at various time points.
The expanded OT-1 cells were characterized by FACS analysis and transferred into E.G7-OVA mice, which bear ovalbumin (OVA) expressing tumors. Following in vivo transfer of expanded OT-1 cells, antitumor response was monitored over time and the quality and quantity of immune response was assessed at various time points. Analysis included FACS analysis on blood, tumor, and spleen samples. Analysis also included re-stimulation of splenocytes with OVA Class I peptide to evaluate the multifunctionality of the antigen-specific effector T cells.
On Day 0, E.G7-OVA cells were implanted into each mouse. On Day 5, approximately 5×10^6 in vitro expanded OT-1 cells were injected into the tail of each mouse. On Day 9, blood was analyzed by FACS. On Day 14, blood, tumor and spleen samples were analyzed by FACS. On Day 27, blood was analyzed by FACS. Tumor volume was measured approximately every five days through about 50 days post implant.

TIL = assay: Cytokine and chemokine secretion of expanded TIL (Luminex); assay type: cell-based, human
Procedure: Also assessed were cytokines and chemokines secreted during the 14 day expansion in GREX.
Supernatants were assessed by Luminex.

breast TIL = assay: CDR3 diversity of expanded breast TIL (iRepertoire sequencing); assay type: cell-based, human; conditions: compound 103 alone or with high dose IL-2; 14 days in GREX10
Procedure: TIL were cultured for 14 days in GREX10. […] The raw data were analyzed by iRepertoire using IRmap programs with a modified Smith-Waterman algorithm. Using CDR3 algerbra software, the calculation of shared CDR3s across samples with the indicated treatment was assessed. […] All CDR3 frequencies were scaled to 10 million reads to account for differences in read depth among samples. Data was normalized so that each uCDR3-VDJ combination was treated as a quantity of 1 regardless of read count, and then analyzed for V usage and J usage.

With `C[C@@H]1CN(Cc2cc3c(c(C(F)(F)F)c2)CN(c2cccc(C4(Cc5nncn5C)COC4)c2)C3=O)CCC1(F)F` [compound 103] the “Expansion of TIL” value ([1]; Cbl inhibitor in the absence of IL-2) was “considerable expansion of TIL”, the “Expansion of TIL, total cell number relative to IL-2 alone” value ([1]; TIL1 (ovary), 0.1 μM Cbl-i) was 90% and the “Expansion of TIL, total cell number relative to IL-2 alone” value ([1]; TIL1 (ovary), 1.0 μM Cbl-i) was 75%. The “Expansion of TIL, total cell number relative to IL-2 alone” value ([1]; TIL1 (ovary), 10 μM Cbl-i) was 60%, the “Expansion of TIL, total cell number relative to IL-2 alone” value ([1]; TIL1 (ovary), IL-2 + 0.1 μM Cbl-i) was 300% and the “Expansion of TIL, total cell number relative to IL-2 alone” value ([1]; TIL1 (ovary), IL-2 + 1.0 μM Cbl-i) was 450%. For the same molecule, the “Expansion of TIL, total cell number relative to IL-2 alone” value ([1]; TIL1 (ovary), IL-2 + 10 μM Cbl-i) was 450%, the “Expansion of TIL, total cell number relative to IL-2 alone” value ([1]; TIL2 (ovary), 0.1 μM Cbl-i) was 30% and the “Expansion of TIL, total cell number relative to IL-2 alone” value ([1]; TIL2 (ovary), 1.0 μM Cbl-i) was 26%. For the same molecule, the “Expansion of TIL, total cell number relative to IL-2 alone” value ([1]; TIL2 (ovary), 10 μM Cbl-i) was 22%, the “Expansion of TIL, total cell number relative to IL-2 alone” value ([1]; TIL2 (ovary), IL-2 + 0.1 μM Cbl-i) was 49% and the “Expansion of TIL, total cell number relative to IL-2 alone” value ([1]; TIL2 (ovary), IL-2 + 1.0 μM Cbl-i) was 86%. The “Expansion of TIL, total cell number relative to IL-2 alone” value ([1]; TIL2 (ovary), IL-2 + 10 μM Cbl-i) was 49%, the “Expansion of TIL, total cell number relative to IL-2 alone” value ([1]; TIL3 (ovary), 0.1 μM Cbl-i) was 30% and the “Expansion of TIL, total cell number relative to IL-2 alone” value ([1]; TIL3 (ovary), 1.0 μM Cbl-i) was 43%. For the same molecule, the “Expansion of TIL, total cell number relative to IL-2 alone” value ([1]; TIL3 (ovary), 10 μM Cbl-i) was 16%, the “Expansion of TIL, total cell number relative to IL-2 alone” value ([1]; TIL3 (ovary), IL-2 + 0.1 μM Cbl-i) was 103% and the “Expansion of TIL, total cell number relative to IL-2 alone” value ([1]; TIL3 (ovary), IL-2 + 1.0 μM Cbl-i) was 114%. The “Expansion of TIL, total cell number relative to IL-2 alone” value ([1]; TIL3 (ovary), IL-2 + 10 μM Cbl-i) was 110%, the “Expansion of TIL, total cell number relative to IL-2 alone” value ([1]; TIL4 (colon), 0.1 μM Cbl-i) was 45% and the “Expansion of TIL, total cell number relative to IL-2 alone” value ([1]; TIL4 (colon), 1.0 μM Cbl-i) was 58%. For the same molecule, the “Expansion of TIL, total cell number relative to IL-2 alone” value ([1]; TIL4 (colon), 10 μM Cbl-i) was 54%, the “Expansion of TIL, total cell number relative to IL-2 alone” value ([1]; TIL4 (colon), IL-2 + 0.1 μM Cbl-i) was 113% and the “Expansion of TIL, total cell number relative to IL-2 alone” value ([1]; TIL4 (colon), IL-2 + 1.0 μM Cbl-i) was 197%. The “Expansion of TIL, total cell number relative to IL-2 alone” value ([1]; TIL4 (colon), IL-2 + 10 μM Cbl-i) was 170%, the “Expansion of TIL, total cell number relative to IL-2 alone” value ([1]; TIL5 (ovary), 0.1 μM Cbl-i) was 50% and the “Expansion of TIL, total cell number relative to IL-2 alone” value ([1]; TIL5 (ovary), 1.0 μM Cbl-i) was 70%. For the same molecule, the “Expansion of TIL, total cell number relative to IL-2 alone” value ([1]; TIL5 (ovary), 10 μM Cbl-i) was 90%, the “Expansion of TIL, total cell number relative to IL-2 alone” value ([1]; TIL5 (ovary), IL-2 + 0.1 μM Cbl-i) was 20% and the “Expansion of TIL, total cell number relative to IL-2 alone” value ([1]; TIL5 (ovary), IL-2 + 1.0 μM Cbl-i) was 10%. The “Expansion of TIL, total cell number relative to IL-2 alone” value ([1]; TIL5 (ovary), IL-2 + 10 μM Cbl-i) was 20%, the “Expansion of TIL, total cell number relative to IL-2 alone” value ([1]; TIL6 (ovary), 0.1 μM Cbl-i) was 93% and the “Expansion of TIL, total cell number relative to IL-2 alone” value ([1]; TIL6 (ovary), 1.0 μM Cbl-i) was 87%. The “Expansion of TIL, total cell number relative to IL-2 alone” value ([1]; TIL6 (ovary), 10 μM Cbl-i) was 80%, the “Expansion of TIL, total cell number relative to IL-2 alone” value ([1]; TIL6 (ovary), IL-2 + 0.1 μM Cbl-i) was 280% and the “Expansion of TIL, total cell number relative to IL-2 alone” value ([1]; TIL6 (ovary), IL-2 + 1.0 μM Cbl-i) was 260%. For the same molecule, the “Expansion of TIL, total cell number relative to IL-2 alone” value ([1]; TIL6 (ovary), IL-2 + 10 μM Cbl-i) was 240%, the “Production of TIL vs IL-2 or Cbl inhibitor alone” value ([1]; both IL-2 and Cbl inhibitor, TIL1 and TIL4) was “substantially more TIL” and the “CD4/8+ T cells capable of producing IFN-γ” value (CD4/8+ T cells) was “greater than 85%”. The “Anti-tumor phenotype of transferred T cells vs controls” value (E.G7-OVA tumors; 3-day ex vivo exposure, alone or in combination with IL-2) was “conferred a lasting anti-tumor phenotype for over a month”, the “Inhibition of tumor growth vs IL-2 expanded cells” value (E.G7-OVA tumors; OT-1 cells expanded with compound 103, FIG. 12A) was “more pronounced inhibition of tumor growth” and the “Long-term survival vs IL-2 expanded cells” value (E.G7-OVA tumors; OT-1 cells expanded with compound 103, FIG. 12B) was “improved long-term survival”. The “Inhibition of tumor growth vs single agents alone” value (E.G7-OVA tumors; OT-1 cells expanded with compound 103 plus IL-2, FIG. 12A) was “more pronounced inhibition of tumor growth”, the “Long term survival vs single agents alone” value (E.G7-OVA tumors; OT-1 cells expanded with compound 103 plus IL-2, FIG. 12B) was “superior long term survival” and the “Potency of expanded CD8+ OT-1 cells (tumor volume) vs IL-2 expanded” value (E.G7-OVA tumors; expanded with compound 103 (1 μM) alone, FIGS. 11A and 11B) was “at least as potent”. For the same molecule, the “Rejection of established tumors by expanded OT-1 cells” value (E.G7-OVA tumors; mice subcutaneously implanted with E.G7-OVA cells, FIG. 9) was “potent effectors capable of rejecting established tumors”, the “GMCSF, MIP1α, MIP1β and IP10 secreted during 14 day expansion in GREX” value (TIL; IL-2 + compound 103) was “trending increases” and the “IFN-γ secreted during 14 day expansion in GREX” value (TIL; IL-2 + compound 103) was “significant increase of IFN-γ”. The “Secretion of IL-2, IL-5, IL-7, IL-21, IL-23, TNF-α, and IFN-γ upon stimulation” value (TIL; high dose IL-2 + 1 μM compound 103, 24 hours) was “significant secretion”, the “Secretion of MIP1α and MIP1β upon stimulation” value (TIL; high dose IL-2 + 1 μM compound 103, anti-CD3/CD28 24 hours) was “significant increases in secretion” and the “Unique CDR3s” value (breast TIL) was “Unique CDR3s increased”.
